Laboratory results from paper doi:10.1101/2021.09.28.462122v1 (biorxiv, 2021).

target: T1, AtGDH (Aspergillus terreus NADP+-specific glutamate dehydrogenase) (Aspergillus terreus, UniProt T2D1F5); assay: NADPH oxidation at […] nm, reductive amination; format: biochemical
T1 sequence (T2D1F5 1-460): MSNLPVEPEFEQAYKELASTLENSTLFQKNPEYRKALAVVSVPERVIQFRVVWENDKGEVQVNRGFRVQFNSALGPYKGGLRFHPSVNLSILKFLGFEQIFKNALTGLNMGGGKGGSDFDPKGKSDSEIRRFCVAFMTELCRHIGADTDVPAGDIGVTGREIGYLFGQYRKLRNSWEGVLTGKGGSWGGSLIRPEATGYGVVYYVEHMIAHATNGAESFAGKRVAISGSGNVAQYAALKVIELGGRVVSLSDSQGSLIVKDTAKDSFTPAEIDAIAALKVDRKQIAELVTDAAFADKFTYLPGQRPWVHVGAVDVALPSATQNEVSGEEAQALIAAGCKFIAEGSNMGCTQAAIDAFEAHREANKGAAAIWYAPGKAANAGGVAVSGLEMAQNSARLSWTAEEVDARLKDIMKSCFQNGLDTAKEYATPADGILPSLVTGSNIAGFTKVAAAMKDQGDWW

| SMILES | Ki |
| --- | --- |
| O=C(O)/C=C/C(=O)O [fumarate] | 23.2 mM |
| O=C(O)/C=C\C(=O)O [maleate] | 36.2 mM |
| O=C(O)CC(=O)O [malonate] | 19.5 mM |
| O=C(O)CCC(=O)O [succinate] | 39.1 mM |
| O=C(O)C(O)C(O)C(=O)O (centres unmarked) [tartrate] | 50.8 mM |
